Results reported in patent US20020054880A1, “Anti-inflammatory, tolerogenic and immunoinhibiting properties of carbohydrate binding-peptides” (priority 1992, published 2002).
Entries after “also recorded” stand apart in the source; their conditions may differ.

How the values were obtained:
[1] = target: T1, ACS2P1-biotin binding to asialofetuin (Bos taurus, UniProt P12763); assay: Screening of S2 and S3 peptides for inhibition of ACS2P1-biotin binding to asialofetuin; settings: peptide μM: ACS2P1 4.1, S2P2 42.5, SPYGRC 5520, S2P3 22.4, S2P4 6.0, S2P6 319, S3P1 1142, S3P2 934, S3P3 16.1, S3P4 6.4, S3P5 22.5; ACS2P1-biotin 0.1 μg; − inhibition, + enhancement
T1 construct: made in house
T1 sequence (P12763 19-359): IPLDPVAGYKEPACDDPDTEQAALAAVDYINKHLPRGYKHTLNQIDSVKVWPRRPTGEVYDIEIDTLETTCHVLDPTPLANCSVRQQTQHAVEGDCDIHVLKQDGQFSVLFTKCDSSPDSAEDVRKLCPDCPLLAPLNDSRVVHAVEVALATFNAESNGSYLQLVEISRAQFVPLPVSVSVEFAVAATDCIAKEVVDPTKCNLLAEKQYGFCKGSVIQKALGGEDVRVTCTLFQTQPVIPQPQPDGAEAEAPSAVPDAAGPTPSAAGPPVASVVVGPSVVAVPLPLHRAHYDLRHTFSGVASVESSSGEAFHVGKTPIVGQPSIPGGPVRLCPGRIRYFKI

[2] = target: T2, SNA-biotin binding to fetuin (Bos taurus, UniProt P12763); assay: biochemical; settings: peptide mg/mL: S2PL 1.2, ACS2P1 1.0, S2(14-2.3) 1.0, S2P2 1.1, S2P3 0.51, S2P4 0.98, S2P6 0.85, S3P1 3.2, S3P2 3.1, S3P3 4.5, S3P4 3.3, S3P5 0.48, S3P9a 1.7, SPYGRC 4.4, S2(WGA) 1.0, WGA (62-73) 1.0; + enhancement, − inhibition
T2 sequence (P12763 19-359): T1 sequence (P12763 19-359)
Method: (§1) The solution was removed by aspiration and replaced with 100 μl of 1% BSA in PBS containing 0.05% Tween 20 (PBST). After incubation for 2-4 hours at room temperature, the microtiter wells were washed four times with 300 μl of PBST. Peptides ranging in concentration from 0.5 to 4.5 mg/ml in PBS (40 μl) were added to each well and PT-biotin (10 μl containing 10 ng in PBS) was then added to the microtiter wells. After incubating for 1 hour, the binding reaction was stopped by aspirating the solutions and the plate was washed with PBST (300 μl). Horseradish peroxidase-conjugated avidin (100 μl, 1/3000 dilution in PBST to a concentration of 0.3 μg/ml) was then added to the wells, and the plates were incubated at ambient temperature for 1 hour. After washing the wells as described above, the substrate solution [1 mM ABTS in 5 mM citrate buffer, pH 4.2, containing 0.1% hydrogen peroxide, v/v) was added and the plates were incubated for 30 minutes. Color development was recorded at 405 nm using a Titertek Multiskan MC plate reader. Maximum binding was determined in the absence of peptide, and background binding was measured in wells coated with BSA only. Binding assays for each peptide were done in duplicate. Binding inhibition experiments utilizing SNA-, WGA-, and MAL-biotin were performed as described above using 10 ng of each biotinylated lectin in PBS.

[3] = target: T3, WGA-biotin binding to fetuin (Bos taurus, UniProt P12763); assay: biochemical; settings: for Percent Changes in Binding Activity WGA/fetuin: peptide mg/mL: S2PL 1.2, ACS2P1 1.0, S2(14-2.3) 1.0, S2P2 1.1, S2P3 0.51, S2P4 0.98, S2P6 0.85, S3P1 3.2, S3P2 3.1, S3P3 4.5, S3P4 3.3, S3P5 0.48, SPYGRC 4.4, S2(WGA) 1.0, WGA (62-73) 1.0, + enhancement, − inhibition
T3 sequence (P12763 19-359): T1 sequence (P12763 19-359)
Method: as §1

[4] = target: T4, PT-biotin binding to asialofetuin (Bos taurus, UniProt P12763); assay: PT-biotin binding to asialofetuin, binding inhibition assay; parameters: species or system Bordetella pertussis; settings: for Percent Changes in Binding Activity PT/asialo-fetuin: peptide mg/mL: S2PL 1.2, ACS2P1 1.0, S2P2 1.1, S2P3 0.51, S2P4 0.98, S2P6 0.85, S3P1 3.2, S3P2 3.1, S3P3 4.5, S3P4 3.3, S3P5 0.48, SPYGRC 4.4, + enhancement, − inhibition; for IC50 PT-b (asialofetuin): wells coated with 3 μg/ml asialofetuin, 2-fold dilutions of peptide in PBS
T4 construct: made in house
T4 sequence (P12763 19-359): T1 sequence (P12763 19-359)
Method: (§2) Peptides ranging in concentration from 0.5 to 4.5 mg/ml in PBS (40 μl) were added to each well and PT-biotin (10 μl containing 10 ng in PBS) was then added to the microtiter wells. […] Horseradish peroxidase-conjugated avidin (100 μl, 1/3000 dilution in PBST to a concentration of 0.3 μg/ml) was then added to the wells, and the plates were incubated at ambient temperature for 1 hour. […] Color development was recorded at 405 nm using a Titertek Multiskan MC plate reader. […] Binding assays for each peptide were done in duplicate. Binding inhibition experiments utilizing SNA-, WGA-, and MAL-biotin were performed as described above using 10 ng of each biotinylated lectin in PBS.
(§3) Binding assays for each inhibitor concentration were done at least in duplicate, and the average value varied less than 15%.

[5] = target: T5, MAL-biotin binding to fetuin (Bos taurus, UniProt P12763); assay: MAL-biotin binding to fetuin, binding inhibition assay; parameters: species or system Maackia amurensis; settings: for Percent Changes in Binding Activity MAL/fetuin: peptide mg/mL: S2PL 1.2, ACS2P1 1.0, S2(14-2.3) 1.0, S2P2 1.1, S2P3 0.51, S2P4 0.98, S2P6 0.85, S3P1 3.2, S3P2 3.1, S3P3 4.5, S3P4 3.3, S3P5 0.48, S3P9a 1.7, SPYGRC 4.4, S2(WGA) 1.0, WGA (62-73) 1.0, + enhancement, − inhibition
T5 construct: purchased Sigma Chemical Company (fetuin); Boehringer Mannheim (MAL-biotin)
T5 sequence (P12763 19-359): T1 sequence (P12763 19-359)
Method: as §2, §3

[6] = target: T6, ACS2P1-biotin binding to fetuin (Bos taurus, UniProt P12763); assay: biochemical; settings: peptide μM: ACS2P1 4.1, S2P2 42.5, SPYGRC 5520, S2P3 22.4, S2P4 6.0, S2P6 319, S3P1 1142, S3P2 934, S3P3 16.1, S3P4 6.4, S3P5 22.5; ACS2P1-biotin 0.1 μg; − inhibition, + enhancement
T6 construct: purchased Sigma Chemical Company
T6 sequence (P12763 19-359): T1 sequence (P12763 19-359)

[7] = target: T7, PT-biotin binding to fetuin (Bos taurus, UniProt P12763); assay: PT-biotin binding to fetuin, binding inhibition assay; parameters: species or system Bordetella pertussis; settings: for Percent Changes in Binding Activity PT/fetuin: peptide mg/mL: S2PL 1.2, ACS2P1 1.0, S2(14-2.3) 1.0, S2P2 1.1, S2P3 0.51, S2P4 0.98, S2P6 0.85, S3P1 3.2, S3P2 3.1, S3P3 4.5, S3P4 3.3, S3P5 0.48, S3P9a 1.7, SPYGRC 4.4, S2(WGA) 1.0, WGA (62-73) 1.0, + enhancement, − inhibition
T7 construct: purchased Sigma Chemical Company (fetuin); Connaught Center for Biotechnology Research (PT)
T7 sequence (P12763 19-359): T1 sequence (P12763 19-359)
Method: as §2, §3

Compound	Percent Change in Binding Activity Asialofetuin [1]	Percent Changes in Binding Activity SNA/fetuin [2]	IC50 [3] [µM]	Percent Changes in Binding Activity WGA/fetuin [3]	Percent Changes in Binding Activity PT/asialo-fetuin [4]	IC50 [5] [µM]	effect on MAL-biotin binding to fetuin, in words [5]	Percent Changes in Binding Activity MAL/fetuin [5]	Percent Change in Binding Activity Fetuin [6]	IC50 [7] [µM]	effect on PT-biotin binding to fetuin, in words [7]	Percent Changes in Binding Activity PT/fetuin [7]	effect on PT-biotin binding to asialofetuin, in words [4]	IC50 PT-b (asialofetuin) [4]	enhancement of PT-biotin binding to fetuin relative to control experiments in the absence of peptide ([7]; initial peptide screening) [fold]
CC[C@H](C)[C@H](NC(=O)[C@H](CS)NC(=O)[C@H](Cc1ccccc1)NC(=O)[C@@H](NC(=O)[C@@H](NC(=O)[C@H](CCCCN)NC(=O)[C@H](CC(C)C)NC(=O)[C@H](CC(=O)O)NC(=O)[C@H](Cc1ccccc1)NC(=O)[C@H](C)NC(=O)CN)[C@@H](C)O)[C@@H](C)O)C(=O)N[C@@H](CCSC)C(=O)N[C@H](C(=O)N[C@H](C(=O)N[C@@H](CCCNC(=N)N)C(=O)N[C@@H](CC(N)=O)C(=O)N[C@H](C(=O)NCC(=O)N[C@@H](CCC(N)=O)C(=O)N1CCC[C@H]1C(=O)N[C@@H](C)C(=O)O)[C@@H](C)O)[C@@H](C)O)[C@@H](C)O [Peptide S2P3]	+15 ± 11%	−15 ± 4%	140 ± 30	−56 ± 8%	−15(1) Percent	860 ± 20	inhibit binding to fetuin of all the biotinylated lectins; also recorded: very active at inhibiting	−18 ± 2%	+70 ± 11%	190 ± 90	inhibit binding to fetuin of all the biotinylated lectins	−21 ± 0%			
CC[C@H](C)[C@H](NC(=O)[C@@H](NC(=O)[C@@H]1CCCN1C(=O)[C@H](CCC(N)=O)NC(=O)CNC(=O)[C@H](CO)NC(=O)[C@H](CCCNC(=N)N)NC(=O)[C@@H](NC(=O)[C@@H](N)Cc1ccccc1)C(C)C)C(C)C)C(=O)NCC(=O)N[C@@H](C)C(=O)N[C@@H](CS)C(=O)N[C@H](C(=O)N[C@@H](CO)C(=O)N1CCC[C@H]1C(=O)N[C@@H](Cc1ccc(O)cc1)C(=O)N[C@@H](CC(=O)O)C(=O)NCC(=O)N[C@@H](CCCCN)C(=O)N[C@@H](Cc1ccc(O)cc1)C(=O)N[C@@H](Cc1c[nH]c2ccccc12)C(=O)N[C@@H](CO)C(=O)N[C@@H](CCSC)C(=O)N[C@@H](Cc1ccc(O)cc1)C(=O)N[C@@H](CO)C(=O)N[C@@H](CCCNC(=N)N)C(=O)N[C@@H](CC(C)C)C(=O)N[C@@H](CCCNC(=N)N)C(=O)N[C@@H](CCCCN)C(=O)N[C@@H](CCSC)C(=O)N[C@@H](CC(C)C)C(=O)N[C@@H](Cc1ccc(O)cc1)C(=O)O)[C@@H](C)O [Peptide S2P6]	+18 ± 16%	+2 ± 2%		+57 ± 0%	−18(1) Percent			+18 ± 16%	+49 ± 5%	220 ± 60		−28 ± 6%			
AGFIYRETFCITTIYKTGQPAADHYYSKVTA [Peptide S3P4]	+26 ± 2%	+1(1) Percent		+13 ± 1%	+75 ± 50%			+7 ± 1%	+55 ± 26%			+12 ± 2%			
Ac-PQEQITQHGSPYGRC-NH2 [ACS2P1]	+101 ± 2%				+190 ± 23%			+16 ± 9%				+89 ± 3%			
CASPYEGRYRDMYDALRRLLY [Peptide S3P5]	−17 ± 8%	0(1) Percent		+35 ± 8%	−26 ± 10%			+3 ± 6%	−19 ± 4%			+14 ± 6%	reduce binding of PT to asialofetuin only; also recorded: inhibit PT-biotin's interaction with asialofetuin in a concentration-dependent manner	above the solubility limits of the peptide in PBS	
CITTIYKTGQPAADHYYSKVTA [Peptide S3P3]	−10 ± 11%	+3 ± 0%		+6 ± 3%	−28 ± 7%			+13 ± 15%	−13 ± 16%			+19 ± 67%	reduce binding of PT to asialofetuin only; also recorded: inhibit PT-biotin's interaction with asialofetuin in a concentration-dependent manner	above the solubility limits of the peptide in PBS	
H-SQYGYCGFGAEY-OH [WGA (62-73)]		−3 ± 2%	3400	−9 ± 1%				−1 ± 4%		1500		−32 ± 5%			
PQEQITQHGSPYGRC [Peptide S2P1]		−5 ± 1%		−18 ± 2%	+113(1) Percent			+8 ± 4%			enhancement of binding of PT to fetuin	+85 ± 4%			~2
PQEQITQHGSQYGYC [S2 (WGA)]		0 ± 1%		−4 ± 3%				+22 ± 3%				+79 ± 15%			
TQHGSPYGRC [S2 (14-23)]		+1 ± 2%		+7 ± 1%				+32 ± 1%				+68 ± 9%			
YDGKYWSMYSRLRKMLY [Peptide S2P4]	+2 ± 4%	+3(1) Percent		+15 ± 1%	−3(1) Percent			+2(1) Percent	−8 ± 16%			+14 ± 22%			
